Assay results reported in US8648066B2 (Exelixis, Inc., priority 2009, dated 2014).

Molecular target: mTOR/GbL/Raptor (mTORC1) (Homo sapiens, UniProt P42345)
Assay: mTOR/GbL/Raptor (mTORC1) ELISA assay
Format: biochemical
Details: phosphorylation of 4E-BP1; 0.2 nM mTORC1, 10 μM ATP; read-out: IC50 in this assay (mTORC1 ELISA)
Summary of the method: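 ELISA read-out: phospho-4E-BP1 captured on Ni-chelate plates and detected with anti-phospho antibody plus HRP-anti-IgG luminescence. The kinase step ran 120 min at ambient temperature with 0.2 nM human mTORC1, 10 µM ATP, 50 nM His-4E-BP1, 10 mM MnCl2, pH 7.2 HEPES.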

## CC1(C)CCc2ncnc(N3CCOc4ccc(-c5cnc(N)c(S(=O)(=O)NC6CC7CCC(C6)N7)c5)cc4C3)c2C1 (stereo not drawn) [Example 425, 2-amino-N-8-azabicyclo[3.2.1]oct-3-yl-5-[4-(6,6-dimethyl-5,6,7,8-tetrahydroquinazolin-4-yl)-2,3,4,5-tetrahydro-1,4-benzoxazepin-7-yl]pyridine-3-sulfonamide]
  IC50: 0.01 to 0.05 µM

## Cc1nc2ccc(-c3ccc4c(c3)CN(c3ncnc(C)c3Cc3cccc(F)c3)CCO4)cc2[nH]1 [Example 72, 4-{5-[(3-fluorophenyl)methyl]-6-methylpyrimidin-4-yl}-7-(2-methyl-1H-benzimidazol-6-yl)-2,3,4,5-tetrahydro-1,4-benzoxazepine]
  IC50: ≤ 0.01 µM

## CCc1ncnc(N2CCOc3ccc(-c4ccc5nc(C)[nH]c5c4)cc3C2)c1C [Example 56, 4-(6-ethyl-5-methylpyrimidin-4-yl)-7-(2-methyl-1H-benzimidazol-6-yl)-2,3,4,5-tetrahydro-1,4-benzoxazepine]
  IC50: 0.25 to 1 µM

## Cc1nc2ccc(-c3ccc4c(c3)CN(c3ncnc5c3CC(C)C5)CCO4)cc2[nH]1 (stereo not drawn) [Example 76, 7-(2-methyl-1H-benzimidazol-6-yl)-4-(6-methyl-6,7-dihydro-5H-cyclopenta[d]pyrimidin-4-yl)-2,3,4,5-tetrahydro-1,4-benzoxazepine]
  IC50: 0.05 to 0.25 µM

## Cc1nc2cc(-c3ccc4c(c3)CN(c3nc(CN(C)C)nc(C)c3Cl)CCO4)ccc2[nH]1 [Example 677, 1-{5-chloro-4-methyl-6-[7-(2-methyl-1H-benzimidazol-5-yl)-2,3-dihydro-1,4-benzoxazepin-4(5H)-yl]pyrimidin-2-yl}-N,N-dimethylmethanamine]
  IC50: ≥ 2 µM

## Cc1nc2ncc(-c3ccc4c(c3)CN(c3ncnc(N5CCOCC5)c3C)CCO4)cc2[nH]1 [Example 551]
  IC50: 0.25 to 1 µM

## COc1ccc2c(N3CCOc4ccc(-c5ccc6nc(C)[nH]c6c5)cc4C3)ncnc2c1OC [Example 34, 4-[7,8-bis(methyloxy)quinazolin-4-yl]-7-(2-methyl-1H-benzimidazol-6-yl)-2,3,4,5-tetrahydro-1,4-benzoxazepine]
  IC50: 0.05 to 0.25 µM

## CC1(C)CCc2ncnc(N3CCOc4ccc(-c5cnc6c(c5)S(=O)(=O)NC(=O)N6)cc4C3)c2C1 [Example 571, 7-[4-(6,6-dimethyl-5,6,7,8-tetrahydroquinazolin-4-yl)-2,3,4,5-tetrahydro-1,4-benzoxazepin-7-yl]-2H-pyrido[2,3-e][1,2,4]thiadiazin-3(4H)-one 1,1-dioxide]
  IC50: 0.05 to 0.25 µM

## CC1(C)CCc2ncnc(N3CCOc4ccc(-c5cnc(N)c(S(=O)(=O)N6CCCC(O)C6)c5)cc4C3)c2C1 (stereo not drawn) [Example 316]
  IC50: 0.01 to 0.05 µM

## Cc1nc2ncc(-c3ccc4c(c3)CN(c3ncnc(NC(C)C)c3C)CCO4)cc2[nH]1 [Example 525, 5-methyl-N-(1-methylethyl)-6-[7-(2-methyl-1H-imidazo[4,5-b]pyridin-6-yl)-2,3-dihydro-1,4-benzoxazepin-4(5H)-yl]pyrimidin-4-amine]
  IC50: 0.25 to 1 µM

## COc1cc2c(N3CCOc4ccc(-c5cnc6nc(N)[nH]c6c5)cc4C3)ncnc2cc1Br [Example 184, 6-{4-[7-bromo-6-(methyloxy)quinazolin-4-yl]-2,3,4,5-tetrahydro-1,4-benzoxazepin-7-yl}-1H-imidazo[4,5-b]pyridin-2-amine]
  IC50: 0.25 to 1 µM

## CC(=O)OCc1nc(C)c(C(C)C)c(N2CCOc3ccc(-c4ccc5nc(C)[nH]c5c4)cc3C2)n1 [Example 686, {4-methyl-6-[7-(2-methyl-1H-benzimidazol-5-yl)-2,3-dihydro-1,4-benzoxazepin-4(5H)-yl]-5-(1-methylethyl)pyrimidin-2-yl}methyl acetate]
  IC50: 0.01 to 0.05 µM

## Cc1nc(CN(C)C)nc(N2CCOc3ccc(-c4ccc5[nH]c(CF)nc5c4)cc3C2)c1Cc1ccc(F)cc1 [Example 321]
  IC50: ≤ 0.01 µM

## Cc1nc2ccc(-c3ccc4c(c3)CN(c3ncnc(C)c3Cc3ccc(F)c(F)c3)CCO4)cc2[nH]1 [Example 89, 4-{5-[(3,4-difluorophenyl)methyl]-6-methylpyrimidin-4-yl}-7-(2-methyl-1H-benzimidazol-6-yl)-2,3,4,5-tetrahydro-1,4-benzoxazepine]
  IC50: ≤ 0.01 µM

## CC1(C)CCc2ncnc(N3CCOc4ccc(-c5cnc(N)c(S(=O)(=O)NC[C@@H]6CCNC6)c5)cc4C3)c2C1 [Example 388, 2-amino-5-[4-(6,6-dimethyl-5,6,7,8-tetrahydroquinazolin-4-yl)-2,3,4,5-tetrahydro-1,4-benzoxazepin-7-yl]-N-[(3R)-pyrrolidin-3-ylmethyl]pyridine-3-sulfonamide]
  IC50: 0.01 to 0.05 µM

## CC1=Cc2ncnc(N3CCOc4ccc(-c5cnc(N)c(S(=O)(=O)NCC6CCN(C)CC6)c5)cc4C3)c2CC1(C)C [Example 420, 2-amino-N-[(1-methylpiperidin-4-yl)methyl]-5-[4-(6,6,7-trimethyl-5,6-dihydroquinazolin-4-yl)-2,3,4,5-tetrahydro-1,4-benzoaxepin-7-yl]pyridine-3-sulfonamide]
  IC50: 0.25 to 1 µM

## Cc1nc2ncc(-c3ccc4c(c3)CN(c3nc(CO)nc5c3CC(C)(C)CC5)CCO4)cc2[nH]1 [Example 312, {6,6-dimethyl-4-[7-(2-methyl-1H-imidazo[4,5-b]pyridin-6-yl)-2,3-dihydro-1,4-benzoxazepin-4(5H)-yl]-5,6,7,8-tetrahydroquinazolin-2-yl}methanol]
  IC50: ≤ 0.01 µM

## CC(C)(N)CNS(=O)(=O)c1cc(-c2ccc3c(c2)CN(c2ncnc4c2CC(C)(C)CC4)CCO3)cnc1N [Example 406, 2-amino-N-(2-amino-2-methylpropyl)-5-[4-(6,6-dimethyl-5,6,7,8-tetrahydroquinazolin-4-yl)-2,3,4,5-tetrahydro-1,4-benzoxazepin-7-yl]pyridine-3-sulfonamide]
  IC50: ≤ 0.01 µM

## Cc1nc(CN(C)C)nc(N2CCOc3ccc(-c4ccc5[nH]c(CF)nc5c4)cc3C2)c1C(C)C [Example 332, 1-[4-{7-[2-(fluoromethyl)-1H-benzimidazol-5-yl]-2,3-dihydro-1,4-benzoxazepin-4(5H)-yl}-6-methyl-5-(1-methylethyl)pyrimidin-2-yl]-N,N-dimethylmethanamine]
  IC50: 0.05 to 0.25 µM

## COc1ccc2c(N3CCOc4ccc(-c5cccc(C(=O)O)c5)cc4C3)nc(C)nc2c1 [Example 456, 3-{4-[2-methyl-7-(methyloxy)quinazolin-4-yl]-2,3,4,5-tetrahydro-1,4-benzoxazepin-7-yl}benzoic acid]
  IC50: ≥ 2 µM

## CC1(C)CCc2ncnc(N3CCOc4ccc(-c5cnc(N)c(S(=O)(=O)N6CCC(O)CC6)c5)cc4C3)c2C1 [Example 317, 1-({2-amino-5-[4-(6,6-dimethyl-5,6,7,8-tetrahydroquinazolin-4-yl)-2,3,4,5-tetrahydro-1,4-benzoxazepin-7-yl]pyridin-3-yl}sulfonyl)piperidin-4-ol]
  IC50: 0.05 to 0.25 µM

## COC(=O)Nc1nc2ccc(-c3ccc4c(c3)CN(c3nc(CN(C)C)nc5c3CC(C)(C)CC5)CCO4)cc2[nH]1 [Example 579, methyl [6-(4-{2-[(dimethylamino)methyl]-6,6-dimethyl-5,6,7,8-tetrahydroquinazolin-4-yl}-2,3,4,5-tetrahydro-1,4-benzoxazepin-7-yl)-1H-benzimidazol-2-yl]carbamate]
  IC50: 0.25 to 1 µM

## CNc1ncnc(N2CCOc3ccc(-c4cnc5nc(C)[nH]c5c4)cc3C2)c1C [Example 610, N,5-dimethyl-6-[7-(2-methyl-1H-imidazo[4,5-b]pyridin-6-yl)-2,3-dihydro-1,4-benzoxazepin-4(5H)-yl]pyrimidin-4-amine]
  IC50: 0.25 to 1 µM

## COc1ccc2c(N3CCOc4ccc(-c5cnc(N)nc5)cc4C3)nc(C)nc2c1 [Example 286, 5-{4-[2-methyl-7-(methyloxy)quinazolin-4-yl]-2,3,4,5-tetrahydro-1,4-benzoxazepin-7-yl}pyrimidin-2-amine]
  IC50: ≥ 2 µM

## COc1ccc2c(N3CCOc4ccc(-c5cnc(N)c(S(=O)(=O)C[C@@H](C)CO)c5)cc4C3)ncnc2c1 [Example 303, (2S)-3-[(2-amino-5-{4-[7-(methyloxy)quinazolin-4-yl]-2,3,4,5-tetrahydro-1,4-benzoxazepin-7-yl}pyridin-3-yl)sulfonyl]-2-methylpropan-1-ol]
  IC50: 0.25 to 1 µM

## Cc1nc2ncc(-c3ccc4c(c3)CN(c3ncnc5c3CC[C@@H](C)C5)CCO4)cc2[nH]1 [Example 559, 7-(2-methyl-1H-imidazo[4,5-b]pyridin-6-yl)-4-[(7R)-7-methyl-5,6,7,8-tetrahydroquinazolin-4-yl]-2,3,4,5-tetrahydro-1,4-benzoxazepine]
  IC50: 0.01 to 0.05 µM

## CC1(C)CCc2ncnc(N3CCOc4ccc(-c5cnc(N)c(S(=O)(=O)NCC(O)CN)c5)cc4C3)c2C1 (stereo not drawn) [Example 412, 2-amino-N-(3-amino-2-hydroxypropyl)-5-[4-(6,6-dimethyl-5,6,7,8-tetrahydroquinazolin-4-yl)-2,3,4,5-tetrahydro-1,4-benzoxazepin-7-yl]pyridine-3-sulfonamide]
  IC50: 0.01 to 0.05 µM

## COc1ccc(-c2ccc3c(c2)CN(c2nc(CN(C)C)nc4c2CC(C)(C)CC4)CCO3)cc1Cl [Example 324, 1-(4-{7-[3-chloro-4-(methyloxy)phenyl]-2,3-dihydro-1,4-benzoxazepin-4(5H)-yl}-6,6-dimethyl-5,6,7,8-tetrahydroquinazolin-2-yl)-N,N-dimethylmethanamine]
  IC50: 0.25 to 1 µM

## CC[C@H]1CCc2c(ncnc2N2CCOc3ccc(-c4cnc(N)c(S(=O)(=O)N5C[C@@H]6C[C@H]5CN6)c4)cc3C2)C1 [Example 437, 3-[(1S,4S)-2,5-diazabicyclo[2.2.1]hept-2-ylsulfonyl]-5-{4-[(7S)-7-ethyl-5,6,7,8-tetrahydroquinazolin-4-yl]-2,3,4,5-tetrahydro-1,4-benzoxazepin-7-yl}pyridin-2-amine]
  IC50: 0.01 to 0.05 µM

## Cc1nc2cc(-c3ccc4c(c3)CN(c3nc(CN(C)C)nc(C)c3Cc3ccc(F)cc3)CCO4)cnc2[nH]1 [Example 348, 1-{5-[(4-fluorophenyl)methyl]-4-methyl-6-[7-(2-methyl-3H-imidazo[4,5-b]pyridin-6-yl)-2,3-dihydro-1,4-benzoxazepin-4(5H)-yl]pyrimidin-2-yl}-N,N-dimethylmethanamine]
  IC50: ≤ 0.01 µM
